“Also recorded” adds a separate entry of the source.
biological target: T1, KATP ion channels of beta cells in the pancreas (HIT-T15 cells) (UniProt A0A1U7QRT4+Q09427); assay: Electro-physiological experiment: whole cell patch clamp recording of KATP current; format: cell-based; settings: single compounds vs GBC; FIG. 5
T1 construct: endogenous in cells; host or cells: HIT-T15 cells
Protocol: HIT-T15 cells used for the experimental examples below were cultivated in an RPMI 1640 culture medium containing horse serum (10%, v/v), fetal bovine serum (2.5% v/v), and 1% penicillin-streptomycin, in a 5% CO2 incubator at 37° C.
Since type II diabetes is directly related to the KATP ion channels of beta cells in the pancreas (Tarasov, A. et al., Diabetes., 53(3), pp. S113-S122, 2004), it was tested whether or not the Lithospermum erythrorhizon extract obtained in the above example or the shikonin compounds isolated therefrom blocks the KATP ion channels of beta cells in the pancreas.
The ion current was recorded by a conventional whole cell patch clamp method, using a patch clamp amplifier (EPC-9, Heka Elektronik, Lambrecht, Germany). The measurement electrode was pulled from a borosilicate glass capillary using a puller (DMZ-Universal Puller; Dagan Co., USA). The electrode was selected to have a resistance of 6 to 9 MΩ when a solution was filled in the electrode. A cover glass, to which the cells were adhered, was placed on a microscope, and the extra-cellular fluid was allowed to flow, due to gravity, at a speed of up to 0.5 ml/min. When measuring the KATP electric current, the solution inside the electrode included (in mM): 10 NaCl, 102 KCl, 1 CaCl2, 1 MgCl2, 10 HEPES, 0.1 Na2-ATP, 1 Na2-GTP, and 10 EGTA (pH 7.2). To utilize the voltage-clamp method in taking records, the capacitance and series resistance of the cell membranes were compensated by 80% or higher, and the low-pass filter was set to 1 kHZ during the experiments. To measure the KATP electric current, the cell solution was substituted with 110 mM of a barium solution (mM: 110 BaCl2, 10 HEPES, 10 glucose), after which the membrane potential was fixed at −60 mV, and the resulting introvert current was recorded. The experiment results were stored in a Pentium level IBM computer and analyzed using Pulse/Pulsefit (v8.65) software (Heka Elektronik, Lambrecht, Germany), and all of the experiments were performed at room temperature.

T1 sequence (Q09427 whole entry): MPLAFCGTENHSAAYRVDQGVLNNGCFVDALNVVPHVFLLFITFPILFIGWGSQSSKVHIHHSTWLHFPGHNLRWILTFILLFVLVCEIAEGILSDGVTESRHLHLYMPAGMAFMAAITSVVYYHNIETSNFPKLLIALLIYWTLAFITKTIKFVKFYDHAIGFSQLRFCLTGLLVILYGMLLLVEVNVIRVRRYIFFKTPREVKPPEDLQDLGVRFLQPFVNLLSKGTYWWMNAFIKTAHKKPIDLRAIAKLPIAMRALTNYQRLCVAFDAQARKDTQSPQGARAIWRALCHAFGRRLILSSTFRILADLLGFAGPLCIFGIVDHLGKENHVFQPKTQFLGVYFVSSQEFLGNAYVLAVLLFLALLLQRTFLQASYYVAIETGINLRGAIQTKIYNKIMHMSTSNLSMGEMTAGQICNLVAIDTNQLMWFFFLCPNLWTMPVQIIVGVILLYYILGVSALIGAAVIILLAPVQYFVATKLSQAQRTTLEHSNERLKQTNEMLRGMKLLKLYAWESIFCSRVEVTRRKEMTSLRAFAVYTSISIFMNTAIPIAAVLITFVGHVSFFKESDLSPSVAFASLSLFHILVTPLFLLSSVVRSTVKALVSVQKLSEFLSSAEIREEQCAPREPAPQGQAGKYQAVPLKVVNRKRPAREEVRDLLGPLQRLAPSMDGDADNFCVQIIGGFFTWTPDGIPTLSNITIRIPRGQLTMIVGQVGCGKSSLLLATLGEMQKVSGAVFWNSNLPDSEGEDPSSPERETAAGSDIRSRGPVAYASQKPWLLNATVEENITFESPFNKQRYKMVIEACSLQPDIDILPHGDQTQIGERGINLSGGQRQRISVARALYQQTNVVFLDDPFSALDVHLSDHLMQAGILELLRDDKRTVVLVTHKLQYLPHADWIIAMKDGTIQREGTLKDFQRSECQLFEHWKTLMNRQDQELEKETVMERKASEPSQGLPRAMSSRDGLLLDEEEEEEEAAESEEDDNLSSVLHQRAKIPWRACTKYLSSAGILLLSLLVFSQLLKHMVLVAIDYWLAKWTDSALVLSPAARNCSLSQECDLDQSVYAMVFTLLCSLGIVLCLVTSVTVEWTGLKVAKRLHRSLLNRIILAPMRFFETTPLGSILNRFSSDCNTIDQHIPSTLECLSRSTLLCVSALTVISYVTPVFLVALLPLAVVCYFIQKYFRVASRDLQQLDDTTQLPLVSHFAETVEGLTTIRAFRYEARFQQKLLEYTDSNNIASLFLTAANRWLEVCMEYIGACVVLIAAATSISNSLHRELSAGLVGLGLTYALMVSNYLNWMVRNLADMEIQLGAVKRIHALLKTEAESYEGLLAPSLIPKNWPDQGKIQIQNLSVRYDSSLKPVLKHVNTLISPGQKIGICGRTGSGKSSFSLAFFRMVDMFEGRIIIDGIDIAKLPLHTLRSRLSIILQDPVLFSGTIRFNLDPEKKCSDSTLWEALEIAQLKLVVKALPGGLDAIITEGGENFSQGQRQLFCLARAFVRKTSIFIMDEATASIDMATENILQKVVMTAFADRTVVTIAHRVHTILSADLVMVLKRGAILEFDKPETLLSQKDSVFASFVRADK
T1 sequence (A0A1U7QRT4 1-390): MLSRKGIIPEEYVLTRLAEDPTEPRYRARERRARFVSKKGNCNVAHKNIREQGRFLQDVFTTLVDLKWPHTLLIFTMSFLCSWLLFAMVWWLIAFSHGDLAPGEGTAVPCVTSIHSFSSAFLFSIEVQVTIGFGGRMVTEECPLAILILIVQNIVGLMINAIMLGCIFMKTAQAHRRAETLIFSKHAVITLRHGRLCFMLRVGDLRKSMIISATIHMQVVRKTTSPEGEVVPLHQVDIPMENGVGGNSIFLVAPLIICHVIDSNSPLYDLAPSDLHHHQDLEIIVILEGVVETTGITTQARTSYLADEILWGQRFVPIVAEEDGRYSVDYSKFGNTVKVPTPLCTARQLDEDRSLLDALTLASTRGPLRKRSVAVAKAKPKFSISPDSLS

Question: For `CC(C)=CCC(OC(=O)C(C)C)C1=CC(=O)c2c(O)ccc(O)c2C1=O` (stereo not shown) [BS, Isobutyryl Shikonin], which “inhibition of KATP ion channels by shikonin single compounds compared with GBC” value (“inhibition … compared with GBC” below) is on record?
Answer: effectively inhibit KATP ion channels

Question: With `CC(C)=CCC(OC(=O)C=C(C)C)C1=CC(=O)c2c(O)ccc(O)c2C1=O` (stereo not drawn) [DS, β. β-dimethylacryl Shikonin] as the compound, how does the “inhibition … compared with GBC” value read?
Answer: effectively inhibit KATP ion channels; also recorded: the best in providing the inhibitory effects

Question: Which “inhibition … compared with GBC” value does the source give for `CCC(C)C(=O)OC(CC=C(C)C)C1=CC(=O)c2c(O)ccc(O)c2C1=O` (stereo not drawn) [MS, α-methyl-n-butyryl Shikonin] here?
Answer: effectively inhibit KATP ion channels

Question: For `CC(C)=CCC(OC(=O)CC(C)C)C1=CC(=O)c2c(O)ccc(O)c2C1=O` (stereo not shown) [VS, Isovaleryl Shikonin], which “inhibition … compared with GBC” value is on record?
Answer: effectively inhibit KATP ion channels; also recorded: the best in providing the inhibitory effects
